Experimental data from patent US8440830B2, “Tetrahydro-fused pyridines as histone deacetylase inhibitors” (4SC AG, priority 2007, dated 2013).

system: A549 NSCLC cells; assay: Cellular cytotoxicity assay (Alamar Blue), A549; assay type: cell-based; conditions: Homo sapiens, 72 h, upper end given as ≧100, read-out: IC50 (μM), cytotoxicity towards A549 NSCLC cells
In short: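 Cells were dosed 24 h after seeding with semi-log compound dilutions in quadruplicate, then incubated 72 h at 37 °C, 5% CO2. Viability read by Resazurin reduction (4 h, fluorescence 544/590 nm) relative to untreated 0.5% DMSO controls; IC50 by non-linear regression.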

| SMILES | IC50 [µM] |
| --- | --- |
| CN(C)c1ccc(NC(=NC#N)N2CCc3nc(C(=O)Nc4ccccc4N)sc3C2)cc1 [Example 120, N-(2-aminophenyl)-5-[(cyanoimino){[4-(dimethylamino)phenyl]amino}methyl]-4,5,6,7-tetrahydro[1,3]thiazolo[5,4-c]pyridine-2-carboxamide] | ≥ 0.2 |
| CCCCCNC(=NC#N)N1CCc2nc(C(=O)Nc3ccccc3N)sc2C1 [Example 121, N-(2-aminophenyl)-5-[(cyanoimino)(pentylamino)methyl]-4,5,6,7-tetrahydro[1,3]thiazolo[5,4-c]pyridine-2-carboxamide] | ≥ 0.2 |
| COc1ccc(N)c(NC(=O)c2nc3c(s2)CN(C(=Nc2ccccc2)NC#N)CC3)c1 [Example 123, N-(2-amino-5-methoxyphenyl)-5-[(cyanoamino)(phenylimino)methyl]-4,5,6,7-tetrahydro[1,3]thiazolo[5,4-c]pyridine-2-carboxamide] | ≥ 0.2 |
| COc1ccc(N=C(NC#N)N2CCc3nc(C(=O)Nc4cc(OC)ccc4N)sc3C2)cc1 [Example 124, N-(2-amino-5-methoxyphenyl)-5-{(cyanoamino)[(4-methoxyphenyl)imino]-methyl}-4,5,6,7-tetrahydro[1,3]thiazolo[5,4-c]pyridine-2-carboxamide] | ≥ 0.2 |
| COc1ccc(N=C(NC#N)N2CCc3nc(C(=O)Nc4cc(C(C)C)ccc4N)sc3C2)cc1 [Example 125, N-(2-amino-5-isopropylphenyl)-5-{(cyanoamino)[(4-methoxyphenyl)-imino]methyl}-4,5,6,7-tetrahydro[1,3]thiazolo[5,4-c]pyridine-2-carboxamide] | ≥ 0.2 |
| CC(=Nc1ccccc1)N1CCc2nc(C(=O)Nc3ccccc3N)sc2C1 [Example 126, N-(2-aminophenyl)-5-[N-phenylethanimidoyl]-4,5,6,7-tetrahydro[1,3]thiazolo[5,4-c]pyridine-2-carboxamide] | ≥ 0.2 |
| COc1ccc(N=C(C)N2CCc3nc(C(=O)Nc4ccccc4N)sc3C2)cc1OC [Example 127, N-(2-aminophenyl)-5-[N-(3,4-dimethoxyphenyl)ethanimidoyl]-4,5,6,7 tetrahydro[1,3]thiazolo[5,4-c]pyridine-2-carboxamide] | ≥ 0.2 |
| COc1ccc(N=C(C)N2CCc3nc(C(=O)Nc4ccccc4N)sc3C2)cc1 [Example 128, N-(2-aminophenyl)-5-[N-(4-methoxyphenyl)ethanimidoyl]-4,5,6,7-tetrahydro[1,3]thiazolo[5,4-c]pyridine-2-carboxamide] | ≥ 0.2 |
| COc1ccc(N)c(NC(=O)c2nc3c(s2)CN(C(C)=Nc2ccccc2)CC3)c1 [Example 129, N-(2-amino-5-methoxyphenyl)-5-[N-phenylethanimidoyl]-4,5,6,7-tetrahydro[1,3]thiazolo[5,4-c]pyridine-2-carboxamide] | ≥ 0.2 |
| COc1ccc(N=C(C)N2CCc3nc(C(=O)Nc4cc(OC)ccc4N)sc3C2)cc1 [Example 130, N-(2-amino-5-methoxyphenyl)-5-[N-(4-methoxyphenyl)ethanimidoyl]-4,5,6,7-tetrahydro[1,3]thiazolo[5,4-c]pyridine-2-carboxamide] | ≥ 0.2 |
| COc1ccc(N)c(NC(=O)c2nc3c(s2)CN(C(C)=Nc2ccc(OC)c(OC)c2)CC3)c1 [Example 131, N-(2-amino-5-methoxyphenyl)-5-[N-(3,4-dimethoxyphenyl)ethanimidoyl]-4,5,6,7-tetrahydro[1,3]thiazolo[5,4-c]pyridine-2-carboxamide] | ≥ 0.2 |
| COc1ccc(N=C(C)N2CCc3nc(C(=O)Nc4cc(C(C)C)ccc4N)sc3C2)cc1 [Example 132, N-(2-amino-5-isopropylphenyl)-5-[N-(4-methoxyphenyl)ethanimidoyl]-4,5,6,7-tetrahydro[1,3]thiazolo[5,4-c]pyridine-2-carboxamide] | ≥ 0.2 |
| COc1ccc(N=C(C)N2CCc3nc(C(=O)Nc4cc(C(C)C)ccc4N)sc3C2)cc1OC [Example 133, N-(2-amino-5-isopropylphenyl)-5-[N-(3,4-dimethoxyphenyl)ethanimidoyl]-4,5,6,7-tetrahydro[1,3]thiazolo[5,4-c]pyridine-2-carboxamide] | ≥ 0.2 |
| CC(=Nc1ccc(N(C)C)cc1)N1CCc2nc(C(=O)Nc3ccccc3N)sc2C1 [Example 134, N-(2-aminophenyl)-5-{N-[4-(dimethylamino)phenyl]ethanimidoyl}-4,5,6,7-tetrahydro[1,3]thiazolo[5,4-c]pyridine-2-carboxamide] | ≥ 0.2 |
| CC(=Nc1ccccc1)N1CCc2nc(C(=O)Nc3cc(C(C)C)ccc3N)sc2C1 [Example 135, N-(2-amino-5-isopropylphenyl)-5-[N-phenylethanimidoyl]-4,5,6,7-tetrahydro[1,3]thiazolo[5,4-c]pyridine-2-carboxamide] | ≥ 0.2 |
| Nc1ccccc1NC(=O)c1nc2c(s1)CN(C(=C[N+](=O)[O-])Nc1ccccc1)CC2 [Example 136, N-(2-aminophenyl)-5-[1-anilino-2-nitroyinyl]-4,5,6,7-tetrahydro[1,3]thiazolo[5,4-c]pyridine-2-carboxamide] | ≥ 0.2 |

| SMILES | IC50 [µM] |
| --- | --- |
| COc1ccc(NC(=C[N+](=O)[O-])N2CCc3nc(C(=O)Nc4ccccc4N)sc3C2)cc1 [Example 137, N-(2-aminophenyl)-5-{1-[(4-methoxyphenyl)amino]-2-nitroyinyl}-4,5,6,7-tetrahydro[1,3]thiazolo[5,4-c]pyridine-2-carboxamide] | ≥ 0.2 |
| CCCCNC(=C[N+](=O)[O-])N1CCc2nc(C(=O)Nc3ccccc3N)sc2C1 [Example 138, N-(2-aminophenyl)-5-[1-(butylamino)-2-nitrovinyl]-4,5,6,7-tetrahydro[1,3]thiazolo[5,4-c]pyridine-2-carboxamide] | ≥ 0.2 |
| CC(C)c1ccc(NC(=C[N+](=O)[O-])N2CCc3nc(C(=O)Nc4ccccc4N)sc3C2)cc1 [Example 139, N-(2-aminophenyl)-5-{1-[(4-isopropylphenyl)amino]-2-nitrovinyl}-4,5,6,7-tetrahydro[1,3]thiazolo[5,4-c]pyridine-2-carboxamide] | ≥ 0.2 |
| CN(C)c1ccc(NC(=C[N+](=O)[O-])N2CCc3nc(C(=O)Nc4ccccc4N)sc3C2)cc1 [Example 140, N-(2-aminophenyl)-5-[1-{[4-(dimethylamino)phenyl]amino}-2-nitrovinyl]-4,5,6,7-tetrahydro[1,3]thiazolo[5,4-c]pyridine-2-carboxamide] | ≥ 0.2 |
| COc1ccc(NC(=C[N+](=O)[O-])N2CCc3nc(C(=O)Nc4ccccc4N)sc3C2)cc1OC [Example 141, N-(2-aminophenyl)-5-{1-[(3,4-dimethoxyphenyl)amino]-2-nitrovinyl}-4,5,6,7-tetrahydro[1,3]thiazolo[5,4-c]pyridine-2-carboxamide] | ≥ 0.2 |
| COc1ccc(NC(=C[N+](=O)[O-])N2CCc3nc(C(=O)Nc4cc(OC)ccc4N)sc3C2)cc1 [Example 142, N-(2-amino-5-methoxyphenyl)-5-{1-[(4-methoxyphenyl)amino]-2-nitrovinyl}-4,5,6,7-tetrahydro[1,3]thiazolo[5,4-c]pyridine-2-carboxamide] | ≥ 0.2 |
| COc1ccc(N)c(NC(=O)c2nc3c(s2)CN(C(=C[N+](=O)[O-])Nc2ccc(C(C)C)cc2)CC3)c1 [Example 143, N-(2-amino-5-methoxyphenyl)-5-{1-[(4-isopropylphenyl)amino]-2-nitrovinyl}-4,5,6,7-tetrahydro[1,3]thiazolo[5,4-c]pyridine-2-carboxamide] | ≥ 0.2 |
| COc1ccc(N)c(NC(=O)c2nc3c(s2)CN(C(=C[N+](=O)[O-])Nc2ccc(N(C)C)cc2)CC3)c1 [Example 144, N-(2-amino-5-methoxyphenyl)-5-[1-{[4-(dimethylamino)phenyl]amino}-2-nitrovinyl]-4,5,6,7-tetrahydro[1,3]thiazolo[5,4-c]pyridine-2-carboxamide] | ≥ 0.2 |
| CC(C)c1ccc(N)c(NC(=O)c2nc3c(s2)CN(C(=C[N+](=O)[O-])Nc2ccccc2)CC3)c1 [Example 145, N-(2-amino-5-isopropylphenyl)-5-[1-anilino-2-nitrovinyl]-4,5,6,7-tetrahydro[1,3]thiazolo[5,4-c]pyridine-2-carboxamide] | ≥ 0.2 |
| COc1ccc(NC(=C[N+](=O)[O-])N2CCc3nc(C(=O)Nc4cc(C(C)C)ccc4N)sc3C2)cc1 [Example 146, N-[2-amino-5-(1-methylethyl)phenyl]-5-{1-[(4-methoxyphenyl)amino]-2-nitroethenyl}-4,5,6,7-tetrahydro[1,3]thiazolo[5,4-c]pyridine-2-carboxamide] | ≥ 0.2 |
| CC(C)c1ccc(N)c(NC(=O)c2nc3c(s2)CN(C(=C[N+](=O)[O-])Nc2ccc(N(C)C)cc2)CC3)c1 [Example 147, N-(2-amino-5-isopropylphenyl)-5-[1-{[4-(dimethylamino)phenyl]amino}-2-nitrovinyl]-4,5,6,7-tetrahydro[1,3]thiazolo[5,4-c]pyridine-2-carboxamide] | ≥ 0.2 |
| CC(C)c1ccc(NC(=C[N+](=O)[O-])N2CCc3nc(C(=O)Nc4cc(C(C)C)ccc4N)sc3C2)cc1 [Example 148, N-(2-amino-5-isopropylphenyl)-5-{1-[(4-isopropylphenyl)amino]-2-nitrovinyl}-4,5,6,7-tetrahydro[1,3]thiazolo[5,4-c]pyridine-2-carboxamide] | ≥ 0.2 |
| COc1ccc(N)c(NC(=O)c2nc3c(s2)CN(C(=C[N+](=O)[O-])Nc2ccc(F)cc2)CC3)c1 [Example 149, N-(2-amino-5-methoxyphenyl)-5-{1-[(4-fluorophenyl)amino]-2-nitrovinyl}-4,5,6,7-tetrahydro[1,3]thiazolo[5,4-c]pyridine-2-carboxamide] | ≥ 0.2 |
| Nc1ccccc1NC(=O)c1nc2c(s1)CN(S(=O)(=O)Cc1ccccc1)CC2 [Example 151, N-(2-aminophenyl)-5-(benzylsulfonyl)-4,5,6,7-tetrahydro[1,3]thiazolo[5,4-c]pyridine-2-carboxamide] | ≥ 0.2 |
| CC(=O)Nc1ccc(S(=O)(=O)N2CCc3nc(C(=O)Nc4ccccc4N)sc3C2)cc1 [Example 155, 5-[(4-acetamidophenyl)sulfonyl]-N-(2-aminophenyl)-4,5,6,7-tetrahydro[1,3]thiazolo[5,4-c]pyridine-2-carboxamide] | ≥ 0.2 |
